# Measurements reported in PubChem BioAssay AID330 (DTP/NCI, 2004).
# Several values for one entry are separate records, joined by “and”; a condition that tells them apart may be missing. Equal entries are not always repeated. Inconclusive results and toxic doses are left out.
# Test system: P388 leukemia ip, CD2F1 mice, survival T/C
# Experiment: NCI In Vivo Anticancer Drug Screen. Data for tumor model P388 Leukemia (intraperitoneal) in CD2F1 (CDF1) mice
# Conditions: endpoint: median survival time, higher = longer survival
# Summary of the method: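 Mice carrying the transplanted tumor received test compound or vehicle. Survival was recorded in each group, and the value is the treated-group measurement divided by that of the vehicle-treated control group.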
# [1] = dose: 25.0 mg/kg/injection, schedule: Q01DX009 (ip), vehicle: saline with Tween-80
# [2] = dose: 50.0 mg/kg/injection, schedule: Q01DX009 (ip), vehicle: saline with Tween-80
# [3] = dose: 100.0 mg/kg/injection, schedule: Q01DX009 (ip), vehicle: saline with Tween-80
# [4] = dose: 200.0 mg/kg/injection, schedule: Q01DX009 (ip), vehicle: saline with Tween-80
# [5] = dose: 50.0 mg/kg/injection, schedule: Q01DX005 (ip), vehicle: saline with Tween-80
# [6] = dose: 100.0 mg/kg/injection, schedule: Q01DX005 (ip), vehicle: saline with Tween-80
# [7] = dose: 200.0 mg/kg/injection, schedule: Q01DX005 (ip), vehicle: saline with Tween-80
# [8] = dose: 50.0 mg/kg/injection, schedule: Q01DX005 (ip), vehicle: Klucel (hydroxypropylcellulose) (HPC)
# [9] = dose: 100.0 mg/kg/injection, schedule: Q01DX005 (ip), vehicle: Klucel (hydroxypropylcellulose) (HPC)
# [10] = dose: 200.0 mg/kg/injection, schedule: Q01DX005 (ip), vehicle: Klucel (hydroxypropylcellulose) (HPC)
# [11] = dose: 50.0 mg/kg/injection, schedule: Q01DX005 (ip), vehicle: saline + Tween-80 + alcohol
# [12] = dose: 100.0 mg/kg/injection, schedule: Q01DX005 (ip), vehicle: saline + Tween-80 + alcohol
# [13] = dose: 200.0 mg/kg/injection, schedule: Q01DX005 (ip), vehicle: saline + Tween-80 + alcohol
structure (smiles),measurement,setting,value
CN(c1ccccc1)S(=O)c1ccccc1 (centres undefined),T/C,[1],94 % of control
same,T/C,[2],103 % of control
same,T/C,[3],110 % of control
COc1cccc2c1C(=O)c1c(O)c3c(c(O)c1C2=O)C[C@@](O)(C(C)=O)C[C@@H]3OC1CC(N(C)Cc2ccccc2)C(O)C(C)O1 (some centres undefined),T/C,"dose: 3.13 mg/kg/injection, schedule: Q04DX003 (ip), vehicle: distilled water + Tween-80",111 % of control
same,T/C,"dose: 6.25 mg/kg/injection, schedule: Q04DX003 (ip), vehicle: distilled water + Tween-80",101 % of control
same,T/C,"dose: 12.5 mg/kg/injection, schedule: Q04DX003 (ip), vehicle: distilled water + Tween-80",118 % of control
same,T/C,"dose: 25.0 mg/kg/injection, schedule: Q04DX003 (ip), vehicle: distilled water + Tween-80",172 % of control
O=c1ccnc2sccn12,T/C,"dose: 100.0 mg/kg/injection, schedule: Q01DX001 (ip), vehicle: saline",109 % of control
same,T/C,"dose: 200.0 mg/kg/injection, schedule: Q01DX001 (ip), vehicle: saline",116 % of control
same,T/C,"dose: 400.0 mg/kg/injection, schedule: Q01DX001 (ip), vehicle: saline",101 % of control
COC1/C=C/OC2(C)Oc3c(C)c(O)c4c(O)c(c(/C=N/n5cnc6c(ncn6C6OC(CO)C(O)C6O)c5=O)c(O)c4c3C2=O)NC(=O)/C(C)=C\C=C\C(C)C(O)C(C)C(O)C(C)C(OC(C)=O)C1C (centres undefined),T/C,[2],106 % of control
same,T/C,[3],97 % of control
same,T/C,[4],102 % of control
CC(C)(C)NC(=S)N/N=C/c1ccccc1O,T/C,[5],108 % of control
same,T/C,[6],109 % of control
same,T/C,[7],107 % of control
O=c1oc2c(-c3c(O)c(=O)oc4ccccc34)cc(O)cc2s1,T/C,[8],96 % of control
same,T/C,[9],103 % of control
same,T/C,[10],104 % of control
CCN(CC)CCN1c2ccccc2Sc2ccc3ccccc3c21,T/C,[11],107 % of control
same,T/C,[12],105 % of control
same,T/C,[13],102 % of control
CC1CCC2(C)OC1OC2CN (centres undefined),T/C,[5],100 % of control
same,T/C,[6],99 % of control
same,T/C,[7],100 % of control
CC(C)C1=C(O)C2=C(C(=O)C1=O)C1(C)CCCC(C)(C)C1CC2O (centres undefined),T/C,[1],100 % of control
same,T/C,[2],104 % of control
same,T/C,[4],108 % of control
CC(C)(C)C1CC=CCC1 (centres undefined),T/C,"dose: 50.0 mg/kg/injection, schedule: Q01DX009 (ip), vehicle: saline sonified",109 % of control
same,T/C,"dose: 100.0 mg/kg/injection, schedule: Q01DX009 (ip), vehicle: saline sonified",100 % of control
N#Cc1ncc(Cl)c2ccccc12,T/C,"dose: 50.0 mg/kg/injection, schedule: Q01DX009 (ip), vehicle: suspension in saline",90 % of control
same,T/C,"dose: 100.0 mg/kg/injection, schedule: Q01DX009 (ip), vehicle: suspension in saline",87 % of control
same,T/C,"dose: 200.0 mg/kg/injection, schedule: Q01DX009 (ip), vehicle: suspension in saline",97 % of control
O=C(NNC(=S)Nc1ccccc1)c1ccncc1,T/C,[2],107 % of control
same,T/C,[3],107 % of control
same,T/C,[4],107 % of control
CCOC(=O)/N=[N+](\[O-])c1ccc(Cl)cc1,T/C,"dose: 100.0 mg/kg/injection, schedule: Q01DX001 (ip), vehicle: Klucel (hydroxypropylcellulose) (HPC)",100 % of control
CCCCC(CC)COC(OCC(CC)CCCC)C(OCC(CC)CCCC)OCC(CC)CCCC (centres undefined),T/C,"dose: 100.0 mg/kg/injection, schedule: Q04DX003 (ip), vehicle: saline with Tween-80",100 % of control
same,T/C,"dose: 200.0 mg/kg/injection, schedule: Q04DX003 (ip), vehicle: saline with Tween-80",100 % of control
same,T/C,"dose: 400.0 mg/kg/injection, schedule: Q04DX003 (ip), vehicle: saline with Tween-80",100 % of control
N#C/C(=C\Nc1ccccn1)C(=O)c1ccccc1,T/C,"dose: 60.0 mg/kg/injection, schedule: Q01DX005 (ip), vehicle: saline with Tween-80",91 % of control
same,T/C,"dose: 120.0 mg/kg/injection, schedule: Q01DX005 (ip), vehicle: saline with Tween-80",91 % of control
same,T/C,"dose: 240.0 mg/kg/injection, schedule: Q01DX005 (ip), vehicle: saline with Tween-80",91 % of control
O=C(Nc1cccc2ccccc12)c1cc2c(cc1Br)OCO2,T/C,"dose: 12.5 mg/kg/injection, schedule: Q01DX009 (ip), vehicle: distilled water + Tween-80",104 % of control
same,T/C,"dose: 25.0 mg/kg/injection, schedule: Q01DX009 (ip), vehicle: distilled water + Tween-80",95 % of control
same,T/C,"dose: 50.0 mg/kg/injection, schedule: Q01DX009 (ip), vehicle: distilled water + Tween-80",92 % of control
same,T/C,"dose: 200.0 mg/kg/injection, schedule: Q01DX009 (ip), vehicle: distilled water + Tween-80",90 % of control
CC(=O)N1C(=O)CC23c4cccc([N+](=O)[O-])c4C(=O)N2CCCN13 (centres undefined),T/C,"dose: 60.0 mg/kg/injection, schedule: Q01DX005 (ip), vehicle: Klucel (hydroxypropylcellulose) (HPC)",97 % of control
same,T/C,"dose: 120.0 mg/kg/injection, schedule: Q01DX005 (ip), vehicle: Klucel (hydroxypropylcellulose) (HPC)",97 % of control
same,T/C,"dose: 240.0 mg/kg/injection, schedule: Q01DX005 (ip), vehicle: Klucel (hydroxypropylcellulose) (HPC)",91 % of control
CCC(=O)c1ccc(Oc2c3ccccc3nc3ccccc23)cc1,T/C,[5],108 % of control
same,T/C,[6],117 % of control
same,T/C,[7],110 % of control
Cc1nc2c(cnn2C)c(=O)n1C(C)C,T/C,[8],104 % of control
same,T/C,[9],112 % of control
same,T/C,[10],111 % of control
Cc1cc(C)c(C#N)c(Sc2nc(C)c([N+](=O)[O-])c(C)c2C#N)n1,T/C,[5],96 % of control
same,T/C,[6],100 % of control
same,T/C,[7],102 % of control
C/C=C/COc1cc2c(cc1C(C)c1ccc(OC)cc1)OCO2 (centres undefined),T/C,[5],107 % of control
same,T/C,[6],106 % of control
same,T/C,[7],119 % of control
COc1cc2cccc(OC)c(=O)c2c(OC)c1OC,T/C,[8],92 % of control
same,T/C,[9],100 % of control
same,T/C,[10],90 % of control
COC(=O)C1=C(C(=O)OC)[C](C(=O)c2ccccc2)([Sn]([CH3])([CH3])[CH3])N=N1 (centres undefined),T/C,"dose: 0.78 mg/kg/injection, schedule: Q01DX009 (ip), vehicle: saline",92 % of control
same,T/C,"dose: 1.56 mg/kg/injection, schedule: Q01DX009 (ip), vehicle: saline",89 % of control
same,T/C,"dose: 3.12 mg/kg/injection, schedule: Q01DX009 (ip), vehicle: saline",93 % of control
C=C(c1ccc(OC)cc1)c1cc(C(C)(C)C)c(O)c(C(C)(C)C)c1,T/C,[11],101 % of control
same,T/C,[12],97 % of control
same,T/C,[13],100 % of control
COc1cccc2c1C(=O)c1c(O)c3c(c(O)c1C2=O)CC(O)(C(=O)COC(C)=O)CC3OC1CC(NC(C)=O)C(O)C(C)O1 (centres undefined),T/C,"dose: 0.78 mg/kg/injection, schedule: Q01DX009 (ip), vehicle: other",122 % of control
same,T/C,"dose: 3.13 mg/kg/injection, schedule: Q01DX009 (ip), vehicle: other",120 % of control
Cc1cc(N/N=C/c2ccc(Cl)cc2)c2cc3c(cc2n1)OCO3,T/C,"dose: 12.5 mg/kg/injection, schedule: Q01DX005 (ip), vehicle: Klucel (hydroxypropylcellulose) (HPC)",98 % of control
same,T/C,"dose: 25.0 mg/kg/injection, schedule: Q01DX005 (ip), vehicle: Klucel (hydroxypropylcellulose) (HPC)",103 % of control
same,T/C,[8],102 % of control and 95 % of control
C/C(=C1/N=C(c2ccccc2)OC1=O)c1ccc(C)cc1,T/C,[8],106 % of control
same,T/C,[9],90 % of control
same,T/C,[10],106 % of control
CNC(=O)OCC1=CC(=O)C(OC)=C(OC)C1=O,T/C,"dose: 7.5 mg/kg/injection, schedule: Q01DX005 (ip), vehicle: saline with Tween-80",104 % of control
same,T/C,"dose: 15.0 mg/kg/injection, schedule: Q01DX005 (ip), vehicle: saline with Tween-80",100 % of control
same,T/C,"dose: 30.0 mg/kg/injection, schedule: Q01DX005 (ip), vehicle: saline with Tween-80",100 % of control
CCCCCCCCCCCC(C)NCc1ccccc1 (centres undefined),T/C,"dose: 6.25 mg/kg/injection, schedule: Q01DX009 (ip), vehicle: Klucel (hydroxypropylcellulose) (HPC)",103 % of control
same,T/C,"dose: 12.5 mg/kg/injection, schedule: Q01DX009 (ip), vehicle: Klucel (hydroxypropylcellulose) (HPC)",112 % of control
same,T/C,"dose: 25.0 mg/kg/injection, schedule: Q01DX009 (ip), vehicle: Klucel (hydroxypropylcellulose) (HPC)",99 % of control
same,T/C,"dose: 50.0 mg/kg/injection, schedule: Q01DX009 (ip), vehicle: Klucel (hydroxypropylcellulose) (HPC)",105 % of control
CC(C)N(c1ccc(O)c2ccccc12)C(C)C,T/C,"dose: 100.0 mg/kg/injection, schedule: Q01DX001 (ip), vehicle: saline with Tween-80",96 % of control
same,T/C,"dose: 200.0 mg/kg/injection, schedule: Q01DX001 (ip), vehicle: saline with Tween-80",100 % of control
same,T/C,"dose: 400.0 mg/kg/injection, schedule: Q01DX001 (ip), vehicle: saline with Tween-80",95 % of control
